# Reference: patent US6875425B2, “Skin lightening agents, compositions and methods” (Unilever Home & Personal Care USA, priority 2002, dated 2005)
# Tested on: mushroom tyrosinase
# Experiment: Mushroom Tyrosinase Assay
# Assay type: biochemical
# Details: for % of Control (Melanin Synthesis): L-DOPA substrate, slope of 475-nm absorbency vs. ethanol control
# Experimental: Mushroom tyrosinase inhibition is indicative of reduction in melanin synthesis, thereby showing skin lightening effect. […] Following an initial measurement of background absorbency at 475-nm, 20 microliters of mushroom tyrosinase (Sigma T-7755; 6050 units/ml) was added and incubated at room temperature. Absorbency is read at 475-nm over the following time points: 0, 2, 4, and 6.5 minutes. The data is plotted as 475-nm absorbency vs. time (minutes) and the slope of the line is calculated (ΔAbs 475nm/min). Values are expressed as the percentage of the respective untreated ethanol control reaction. [formula]
Structure (SMILES),% of Control (Melanin Synthesis) (0.1 uM compound),% of Control (Melanin Synthesis) (1 uM compound),% of Control (Melanin Synthesis) (10 uM compound),% of Control (Melanin Synthesis) (100 uM compound),activity in the mushroom tyrosinase assay (in words) (summary of Table 8)
"Oc1ccc(C2SCCCS2)c(O)c1 [1,3-di-Thiane Resorcinol]",87 % of Control,57 % of Control,48 % of Control,47 % of Control,–
CCc1ccc(O)cc1O [4-Ethyl Resorcinol],73 % of Control,46 % of Control,31 % of Control,21 % of Control,–
Oc1cccc(O)c1 [Resorcinol],97 % of Control,98 % of Control,98 % of Control,100 % of Control,does not display activity
